Assay results published in patent US4582822A, “Antibiotic A80190, pharmaceutical compositions containing same and method of use” (Eli Lilly and Company, priority 1984, dated 1986).
Where a SMILES comes first, the peptide text is derived from it. Bridges are numbered along the chain shown (N, C = ends). [ ]: non-standard residue; d: D form. The star is where a group is joined. Ileψ(thiazoline)Cys = CC[C@H](C)[C@H](N)C1=N[C@H](C(=O)*)CS1; dOrn = NCCC[C@@H](N)C(=O)O

Legend:
NRRL 15878 = assay: Resistance to antibiotics, sensitivity discs on seeded agar; assay type: cell-based, Actinomadura oligospora
Protocol: (§1) Resistance to antibiotics was measured by padding antibiotic sensitivity discs onto the surface of seeded ISP No. 2 agar plates.
(§2) Table III lists the resistance of the strain to various antibiotics at the concentrations indicated and compares it to that of A. macra.

A. macra = assay: as above; assay type: cell-based, Actinomadura macra
Protocol: as §1, §2

Molecule: CC[C@H](C)[C@H](N)C1=N[C@H](C(=O)N[C@@H](CC(C)C)C(=O)N[C@H](CCC(=O)O)C(=O)N[C@H](C(=O)N[C@H]2CCCCNC(=O)[C@H](CC(N)=O)NC(=O)[C@@H](CC(=O)O)NC(=O)[C@H](Cc3cnc[nH]3)NC(=O)[C@@H](Cc3ccccc3)NC(=O)[C@H]([C@@H](C)CC)NC(=O)[C@@H](CCCN)NC2=O)[C@@H](C)CC)CS1 [Bacitracin] ({Ileψ(thiazoline)Cys}-L[dE]IK[dOrn]I[dF]H[dD]N; lactam 4-C)
- Resistance to Antibiotics (NRRL 15878; 10 units): +
- Resistance to Antibiotics (A. macra; 10 units): -

Molecule: CC(=O)OCC1=C(C(=O)O)N2C(=O)[C@@H](NC(=O)Cc3cccs3)[C@H]2SC1 [Cephalothin]
- Resistance to Antibiotics (A. macra; 30 μg): +

Molecule: CC1(C)S[C@@H]2[C@H](NC(=O)Cc3ccccc3)C(=O)N2[C@H]1C(=O)O [Pencillin G]
- Resistance to Antibiotics (NRRL 15878; 10 units): +
- Resistance to Antibiotics (A. macra; 10 units): +

Molecule: CO[C@H]1/C=C/O[C@@]2(C)Oc3c(C)c(O)c4c(O)c(c(/C=N/N5CCN(C)CC5)c(O)c4c3C2=O)NC(=O)/C(C)=C\C=C\[C@H](C)[C@H](O)[C@@H](C)[C@@H](O)[C@@H](C)[C@H](OC(C)=O)[C@@H]1C [Rifampin]
- Resistance to Antibiotics (A. macra; 5 μg): +

Molecule: CN[C@@H]1[C@H](O[C@H]2[C@H](O[C@H]3[C@H](O)[C@@H](O)[C@H](N=C(N)N)[C@@H](O)[C@@H]3N=C(N)N)O[C@@H](C)[C@]2(O)C=O)O[C@@H](CO)[C@H](O)[C@H]1O [Streptocmycin]
- Resistance to Antibiotics (NRRL 15878; 10 μg): -
- Resistance to Antibiotics (A. macra; 10 μg): +

Molecule: CN[C@H](CC(C)C)C(=O)N[C@H]1C(=O)N[C@@H](CC(N)=O)C(=O)N[C@H]2C(=O)N[C@H]3C(=O)N[C@H](C(=O)N[C@H](C(=O)O)c4cc(O)cc(O)c4-c4cc3ccc4O)[C@H](O)c3ccc(c(Cl)c3)Oc3cc2cc(c3O[C@@H]2O[C@H](CO)[C@@H](O)[C@H](O)[C@H]2O[C@H]2C[C@](C)(N)[C@H](O)[C@H](C)O2)Oc2ccc(cc2Cl)[C@H]1O [Vancomycin]
- Resistance to Antibiotics (NRRL 15878; 30 μg): -
- Resistance to Antibiotics (A. macra; 30 μg): -

Molecule: Gentamicin
- Resistance to Antibiotics (NRRL 15878; 10 μg): -
- Resistance to Antibiotics (A. macra; 10 μg): -

Molecule: Tetracycline
- Resistance to Antibiotics (NRRL 15878; 30 μg): -
- Resistance to Antibiotics (A. macra; 30 μg): -
